*1 amine or outer side, *2 acyl side, *3 side chain or, on linkers, in order; H or OH if unused. Where a SMILES comes first, the peptide text is derived from it. Where no end group is shown, it is not given here. Side-chain parts run from the residue outwards. [ ]: non-standard residue; d: D form. The star is where a group is joined. X1 = O=C(O)CCCCCCCCCCCCCCCCCCC(=O)NCC1CCC(C(=O)*)CC1; C18 diacid = O=C(O)CCCCCCCCCCCCCCCCC(=O)*; γGlu = O=C(O)[C@H](CCC(=O)[*:2])N[*:1]; Nle = CCCC[C@H](N)C(=O)O; AEEA = NCCOCCOCC(=O)O; Aib = CC(C)(N)C(=O)O
Key:
Type in all cases: physicochemical
[1] = ThT fibrillation assay (physical stability); settings: 250 μM, pH 7.4, 37° C., 45 hours of incubation
Method: The Thioflavin T assay was performed as outlined in Schlein (2017), AAPS J, 19(2), 397-408.
This has traditionally been measured by visual inspection of the sample. However, that kind of measurement is very cumbersome and depending on the observer. Therefore, the application of a small molecule indicator probe is much more advantageous. Thioflavin T (ThT) is such a probe and has a distinct fluorescence signature when binding to fibrils [Naiki et al. (1989) Anal. Biochem. 177, 244-249; LeVine (1999) Methods. Enzymol. 309, 274-284].
The time course for fibril formation can be described by a sigmoidal curve with the following expression [Nielsen et al. (2001) Biochemistry 40, 6036-6046]:
Here, F is the ThT fluorescence at the time t. The constant t0 is the time needed to reach 50% of maximum fluorescence. The two important parameters describing fibril formation are the lag-time calculated by t0−2τ and the apparent rate constant kapp 1/τ.
Few of those intermediates nucleate to form a template onto which further intermediates may assembly and the fibrillation proceeds. The lag-time corresponds to the interval in which the critical mass of nucleus is built up and the apparent rate constant is the rate with which the fibril itself is formed.
Samples are prepared freshly before each assay. The drug substance was solved with 250 μM of the GIP derivative in 8 mM phosphate, 14 mg/mL propylene glycol, 58 mM phenol, pH 7.4. The pH of the sample was adjusted to the desired value using appropriate amounts of concentrated NaOH and HCl. Thioflavin T was added to the samples from a stock solution in H2O to a final concentration of 1 μM.
Sample aliquots of 200 μl were placed in each well of a 96 well microtiter plate (Packard OptiPlate™-96, white polystyrene). Four replica of each sample (corresponding to one test condition) was placed in one column of wells. The plate was sealed with Scotch Pad (Qiagen).
Incubation, shaking and measurement of the ThT fluorescence emission were done in a Fluoroskan Ascent FL fluorescence platereader (Thermo Labsystems). […] Fluorescence measurement was done using excitation through a 444 nm filter and measurement of emission through a 485 nm filter.
Each run was initiated by incubating the plate at the assay temperature for 10 min. The plate was measured every 20 minutes for a desired period of time. Between each measurement, the plate was shaken and heated as described.
After completion of the ThT assay the replica of each sample was pooled and centrifuged at 20000 rpm for 30 minutes at 18° C. The supernatant was filtered through a 0.22 μm filter and an aliquot was transferred to a HPLC vial. The concentration of the filtered sample relative to the initial sample (in percentage) was reported as the recovery.
The measurement points were saved in Microsoft Excel format for further processing and curve drawing and fitting was performed using GraphPad Prism. […] The data points were a mean of the four replica and shown with standard deviation error bars. Only data obtained in the same experiment (i.e. samples on the same plate) were presented in the same graph ensuring a relative measure of fibrillation between experiments.
The data set may be fitted to Eq. (1).

[2] = Dynamic Light Scattering Stability Index (DLS-SI); settings: 250 μM, pH 7.4, 4 weeks at 25° C.
[3] = Chemical stability: HMWP formation by SEC-MS; settings: 37° C., 4 weeks, 250 μM, pH 7.4
Method: The aim of this study is to determine the chemical stability of GIP derivative compositions. As a measure of stability of the GIP derivative composition, the formation of high molecular weight peptide formation (% HMWP) as a function of time was analysed by size-exclusion chromatography (SEC-MS). Further, the purity loss of the GIP derivative compositions was measured by LCMS. Samples for chemical stability assays were freshly prepared before each assay. […] The pH of the sample was adjusted to the desired value using appropriate amounts of concentrated NaOH and HCl. […] Formation of covalent oligomers (HMWPs) was analysed and identified by a SEC-MS method. […] The LC system was coupled to both a TUV detector operated at 215 nm, 10 Hz and a high resolution QToF mass spectrometer from Waters (Synapt G2S) operated in positive ion mode and m/z range of 100 to 4000 with normal resolution setting. Lock mass correction against Leu-Enkephalin was done every 31 sec. Spectra were processed in MassLynx version 4.1 and MaxEnt deconvoluted.

[4] = Chemical stability: purity loss by LCMS; settings: 37° C., 4 weeks, 250 μM, pH 7.4
Method: The aim of this study is to determine the chemical stability of GIP derivative compositions. As a measure of stability of the GIP derivative composition, the formation of high molecular weight peptide formation (% HMWP) as a function of time was analysed by size-exclusion chromatography (SEC-MS). Further, the purity loss of the GIP derivative compositions was measured by LCMS. Samples for chemical stability assays were freshly prepared before each assay. […] The pH of the sample was adjusted to the desired value using appropriate amounts of concentrated NaOH and HCl. […] The column oven was kept at 55° C. […] The solvents were pumped from a binary solvent manager system and mixed on the high pressure side in a mixer with a volume of 50 μl. The gradient and flow can be seen in table 4: [table] A Flow-through-needle auto sampler at 8° C. was used to inject 1 μl of each sample. The effluent passed through a tunable UV detector (TUV) tuned to 215 nm. The outlet from the UV detector passed to the electrospray source of the mass spectrometer. The capillary was held at 3 kV and dry nitrogen gas was purged at a flow of 750 I/h and a temperature of 250° C. The source block was kept at 120° C. and the large bore cone was flushed with nitrogen at 50 I/h with standard electrode potentials on the rest of the instrument. The MS was operated in high resolution mode with a nominal resolution of 35000. The ToF analyser was operated in ADC mode with an m/z window from 100-2000.

| Compound | ThT Assay Lag time [1] [h] | DLS-SI Dimensionless [2] | DLS-SI precipitates [2] | HMWP formation (%/month) [3] [%/month] | Purity loss (%/month) [4] [%/month] |
| --- | --- | --- | --- | --- | --- |
| CCCC[C@H](NC(=O)[C@H](C)NC(=O)[C@@H](NC(=O)[C@H](CO)NC(=O)[C@H](Cc1ccc(O)cc1)NC(=O)[C@H](CC(=O)O)NC(=O)[C@H](CO)NC(=O)[C@@H](NC(=O)[C@H](Cc1ccccc1)NC(=O)[C@@H](NC(=O)CNC(=O)[C@H](CCC(=O)O)NC(=O)C(C)(C)NC(=O)[C@@H](N)Cc1ccc(O)cc1)[C@@H](C)O)[C@@H](C)CC)[C@@H](C)CC)C(=O)N[C@@H](CC(=O)O)C(=O)N[C@@H](CCCCN)C(=O)N[C@H](C(=O)N[C@@H](CCCNC(=N)N)C(=O)N[C@@H](CCC(N)=O)C(=O)N[C@@H](CCC(=O)O)C(=O)N[C@@H](CC(=O)O)C(=O)N[C@@H](Cc1ccccc1)C(=O)N[C@H](C(=O)N[C@@H](CCCCNC(=O)CC[C@H](NC(=O)CC[C@H](NC(=O)CC[C@H](NC(=O)C1CCC(CNC(=O)CCCCCCCCCCCCCCCCCCC(=O)O)CC1)C(=O)O)C(=O)O)C(=O)O)C(=O)N[C@@H](Cc1c[nH]c2ccccc12)C(=O)N[C@@H](CC(C)C)C(=O)N[C@@H](CC(C)C)C(=O)N[C@@H](C)C(=O)N[C@@H](CCC(N)=O)C(=O)N[C@@H](CCCCN)C(=O)NCC(=O)O)C(C)C)[C@@H](C)CC (stereo partly drawn) [Compound 10, N{Epsilon-24}-[(4S)-4-carboxy-4-[[(4S)-4-carboxy-4-[[(4S)-4-carboxy-4-[[4-[(19-carboxynonadecanoylamino)methyl]cyclohexanecarbonyl]amino]butanoyl]amino]-butanoyl]amino]butanoyl]-[Aib2,Nle14,Arg18,Glu20,Lys24]-hGIP(1-31)] (H-Y[Aib]EGTFISDYSIA[Nle]DKIRQEDFVK([γGlu-γGlu-γGlu-X1])WLLAQKG-OH; N-terminus and C-terminus assumed) | >45 | 1.7 | No | 1.50 | 4.80 |
| CCCC[C@H](NC(=O)[C@H](C)NC(=O)[C@@H](NC(=O)[C@H](CO)NC(=O)[C@H](Cc1ccc(O)cc1)NC(=O)[C@H](CC(=O)O)NC(=O)[C@H](CO)NC(=O)[C@@H](NC(=O)[C@H](Cc1ccccc1)NC(=O)[C@@H](NC(=O)CNC(=O)[C@H](CCC(=O)O)NC(=O)C(C)(C)NC(=O)[C@@H](Cc1ccc(O)cc1)NC(C)=O)[C@@H](C)O)[C@@H](C)CC)[C@@H](C)CC)C(=O)N[C@@H](CC(=O)O)C(=O)N[C@@H](CCCCN)C(=O)N[C@H](C(=O)N[C@@H](Cc1c[nH]cn1)C(=O)N[C@@H](CCC(N)=O)C(=O)N[C@@H](CCC(N)=O)C(=O)N[C@@H](CC(=O)O)C(=O)N[C@@H](Cc1ccccc1)C(=O)N[C@H](C(=O)N[C@@H](CCCCNC(=O)CC[C@H](NC(=O)CC[C@H](NC(=O)CC[C@H](NC(=O)C1CCC(CNC(=O)CCCCCCCCCCCCCCCCCCC(=O)O)CC1)C(=O)O)C(=O)O)C(=O)O)C(=O)N[C@@H](Cc1c[nH]c2ccccc12)C(=O)N[C@@H](CC(C)C)C(=O)N[C@@H](CC(C)C)C(=O)N[C@@H](C)C(=O)N[C@@H](CCC(N)=O)C(=O)N[C@@H](CCCCN)C(=O)N1CCC[C@H]1C(N)=O)C(C)C)[C@@H](C)CC (stereo partly drawn) [Compound 32, N{1}-acetyl,N{Epsilon-24}-[(4S)-4-carboxy-4-[[(4S)-4-carboxy-4-[[(4S)-4-carboxy-4-[[4-[(19-carboxynonadecanoylamino)methyl]cyclohexanecarbonyl]amino]butanoyl]-amino]butanoyl]amino]butanoyl]-[D-Tyr1,Aib2,Nle14,Lys24,Pro31]-hGIP(1-31) amide] (Ac-[dY][Aib]EGTFISDYSIA[Nle]DKIHQQDFVK([γGlu-γGlu-γGlu-X1])WLLAQKP-NH2) | >45 | 1.7 | No | 0.66 | 2.80 |
| Y[Aib]EGTFISDYSIALDKIHQQDFVK([AEEA-AEEA-γGlu-C18 diacid])WLLAQKGKKNDWKHNITQ [Compound 45, N{Epsilon-24}-[2-[2-[2-[[2-[2-[2-[[(4S)-4-carboxy-4-(17-carboxyheptadecanoylamino)butanoyl]amino]ethoxy]ethoxy]acetyl]amino]ethoxy]ethoxy]acetyl]-[Aib2,Leu14,Lys24]-hGIP] | >45 | 6.7 | No | 8.17 | 47.22 |

From patent publication US10604555B2, “GIP derivatives and uses thereof” (priority 2018, dated 2020)
